The OligoGym collection
Several values for one entry are separate records, joined by “and”; a condition that tells them apart may be missing. Identical values can stand only once. After the bases stand the sugars from the 5' end (letter, count) and the backbone: PS all phosphorothioate, else s phosphorothioate and o phosphodiester by linkage. Methylation of C is not given here. [mop] = methoxypropylphosphonate linkage; e = 2'-O-(2-methoxyethyl) (MOE); k = constrained ethyl (cEt); d = 2'-deoxy (DNA)

Target: IRF5
Conditions: ASO

Row | Sequence | target mRNA inhibition (KARPAS-229, 4 µM) | also measured
1 | ATAGGAGTGAGACGAG (sugars k3 d10 k3, PS) | 16% | 
2 | ATCACCACTGTGTACC (sugars kddddddddddkekek, PS) | 0% | 
3 | ATCACCACTGTGTACC (sugars kekdddddddddeekk, PS) | 0% | 
4 | ATCACCACTGTGTACC (sugars kkkdddddddddkeke, PS) | 0% | 
5 | ATCACCACTGTGTACC (sugars kkkddddddddkdkdk, PS) | 0% | 
6 | ATGAGTCATGGGCTGA (sugars kdddddddddkekeke, PS) | 7% | 
7 | ATGGTGTTATCTCCGT (sugars kddddddddddkekek, PS) | 0% | 
8 | ATTTCTGCTCCAGGTT (sugars kddddddddddkekek, PS) | 39% | 
9 | CAATGCAACATCCATC (sugars kdddddddddkekeke, PS) | 0% | 
10 | CAATGCAACATCCATC (sugars kkddddddddkekekk, PS) | 0% | 
11 | CAATTTTGCATTCCAT (sugars k3 d10 k3, PS) | 52% | 
12 | CAATTTTGCATTCCAT (sugars kddddddddddkekek, PS) | 21% | 
13 | CAATTTTGCATTCCAT (sugars kdddddddddkekeke, PS) | 19% | 
14 | CACATCTCCACATCAG (sugars k3 d9 k3 e1, PS) | 25% | 
15 | CACCACTGTGTACCCC (sugars kkddddddddkekekk, PS) | 0% | 
16 | CACTGACACAGGCGGA (sugars k3 d9 k3 e1, PS) | 0% | 
17 | CACTGACACAGGCGGA (sugars kdddddddddkekeke, PS) | 0% | 
18 | CACTGACACAGGCGGA (sugars kkkddddddddkekek, PS) | 0% | 
19 | CAGGTTCTTGGACTCT (sugars kdddddddddkekeke, PS) | 0% | 
20 | CAGGTTCTTGGACTCT (sugars kkkdddddddddkeke, PS) | 1% | 
21 | CATCTCCACATCAGTC (sugars kkddddddddkekekk, PS) | 23% | 
22 | CATTCCATATACACAC (sugars k2 d9 e3 k2, PS) | 21% | 
23 | CATTCCATATACACAC (sugars k3 d10 k3, PS) | 28% | 

Row | Sequence | target mRNA inhibition (KARPAS-229, 4 µM) | also measured
24 | CATTCCATATACACAC (sugars kdddddddddkekeke, PS) | 7% | 
25 | CATTCCATATACACAC (sugars kekdddddddddeekk, PS) | 24% | 
26 | CATTCCATATACACAC (sugars kkddddddddddkeke, PS) | 30% | 
27 | CATTCCATATACACAC (sugars kkddddddddkekekk, PS) | 17% | 
28 | CCAATGCAACATCCAT (sugars k2 d8 e4 k2, PS) | 0% | 
29 | CCAATGCAACATCCAT (sugars k3 d9 k3 e1, PS) | 16% | 
30 | CCAATGCAACATCCAT (sugars kkddddddddkekekk, PS) | 0% | 
31 | CCAATTTTGCATTCCA (sugars k2 d9 e3 k2, PS) | 30% | 
32 | CCAATTTTGCATTCCA (sugars k3 d9 k3 e1, PS) |  | target mRNA inhibition (KARPAS-229, 0.44444 µM): 61% and 54% and 62%; target mRNA inhibition (KARPAS-229, 1.33333 µM): 79% and 75% and 82%; target mRNA inhibition (KARPAS-229, 12 µM): 88% and 91%
33 | CCAATTTTGCATTCCA (sugars kkkddddddddkekek, PS) | 42% | 
34 | CCATTCTATGCCTTTT (sugars k3 d10 k3, PS) | 43% | 
35 | CCATTCTATGCCTTTT (sugars kkdddddddddkekek, PS) | 62% and 61% | target mRNA inhibition (KARPAS-229, 0.44444 µM): 29%; target mRNA inhibition (KARPAS-229, 12 µM): 81%
36 | CCCAATGCAACATCCA (sugars kkkdddddddddkeke, PS) | 0% | 
37 | CCTTCTGCAGGGAGTC (sugars kddddddddddkekek, PS) | 0% | 
38 | CCTTCTGCAGGGAGTC (sugars kdddddddddkekeke, PS) | 0% | 
39 | CCTTCTGCAGGGAGTC (sugars kekdddddddddeekk, PS) | 14% | 
40 | CCTTCTGCAGGGAGTC (sugars kkkddddddddkekek, PS) | 0% | 
41 | CGGTCTTTGAGGTCTG (sugars kekdddddddddeekk, PS) | 49% | 
42 | CGGTCTTTGAGGTCTG (sugars kkdddddddddkekek, PS) | 44% | 
43 | CGGTCTTTGAGGTCTG (sugars kkkddddddddkdkdk, PS) | 57% | 
44 | CTGATATGATACCTAA (sugars k3 d2 k1 d7 k3, PS) |  | target mRNA inhibition (A-431, 0.00412 µM): 18%; target mRNA inhibition (A-431, 0.01225 µM): 23%; target mRNA inhibition (A-431, 0.03704 µM): 41%; target mRNA inhibition (A-431, 0.11111 µM): 63%; target mRNA inhibition (A-431, 0.33333 µM): 80%; target mRNA inhibition (A-431, 1 µM): 75%
45 | CTGATATGATACCTAA (sugars k3 d10 k3, PS) | 59% and 76% | target mRNA inhibition (A-431, 0.00412 µM): 13%; target mRNA inhibition (A-431, 0.01225 µM): 29%; target mRNA inhibition (A-431, 0.03704 µM): 54%; target mRNA inhibition (A-431, 0.11111 µM): 80%; target mRNA inhibition (A-431, 0.33333 µM): 88%; target mRNA inhibition (A-431, 1 µM): 90%; target mRNA inhibition (KARPAS-229, 0.44444 µM): 42%; target mRNA inhibition (KARPAS-229, 1.33333 µM): 45%; target mRNA inhibition (KARPAS-229, 12 µM): 77%
46 | CTGATATGATACCTAA (sugars k3 d10 k3, linkages s5 [mop]1 s9) |  | target mRNA inhibition (A-431, 0.00412 µM): 0%; target mRNA inhibition (A-431, 0.01225 µM): 15%; target mRNA inhibition (A-431, 0.03704 µM): 25%; target mRNA inhibition (A-431, 0.11111 µM): 54%; target mRNA inhibition (A-431, 0.33333 µM): 71%; target mRNA inhibition (A-431, 1 µM): 71%

Row | Sequence | target mRNA inhibition (KARPAS-229, 4 µM) | also measured
47 | CTGTCACATCTCCACA (sugars k3 d9 k3 e1, PS) | 28% | 
48 | CTGTCACATCTCCACA (sugars kkdddddddddkekek, PS) | 23% | 
49 | CTGTCACATCTCCACA (sugars kkkddddddddkekek, PS) | 0% | 
50 | CTTCTGCAGGGAGTCA (sugars kkddddddddddkeke, PS) | 8% | 
51 | CTTCTGCAGGGAGTCA (sugars kkdddddddddkekek, PS) | 0% | 
52 | CTTGGTCTTGACCTCC (sugars k2 d9 e3 k2, PS) | 11% | 
53 | CTTGGTCTTGACCTCC (sugars kdddddddddkekeke, PS) | 0% | 
54 | CTTGGTCTTGACCTCC (sugars kekdddddddddeekk, PS) | 36% | 
55 | CTTTTTGCTCTAAACC (sugars k3 d10 k3, PS) | 0% | 
56 | GAAGTGAGTCTCAAAC (sugars kdddddddddkekeke, PS) | 11% | 
57 | GAGTCATGGGCTGAGG (sugars k3 d9 k3 e1, PS) | 0% | 
58 | GAGTCATGGGCTGAGG (sugars kkddddddddddkeke, PS) | 40% | 
59 | GAGTGAGACGAGCAAA (sugars k3 d10 k3, PS) | 27% | 
60 | GAGTGAGACGAGCAAA (sugars kkddddddddkekekk, PS) | 17% | 
61 | GCATTCCATATACACA (sugars k3 d9 k3 e1, PS) | 25% | 
62 | GCATTCCATATACACA (sugars kddddddddddkekek, PS) | 39% | 
63 | GCATTCCATATACACA (sugars kekdddddddddeekk, PS) | 48% | 
64 | GCATTCCATATACACA (sugars kkkdddddddddkeke, PS) | 45% | 
65 | GCATTCCATATACACA (sugars kkkddddddddkdkdk, PS) | 0% | 
66 | GCCTTCTGCAGGGAGT (sugars k3 d10 k3, PS) | 0% | 
67 | GCTGTCACATCTCCAC (sugars k3 d9 k3 e1, PS) | 23% | 
68 | GCTGTCACATCTCCAC (sugars kekdddddddddeekk, PS) | 0% | 
69 | GCTGTCACATCTCCAC (sugars kkdddddddddkekek, PS) | 5% | 

Row | Sequence | target mRNA inhibition (KARPAS-229, 4 µM) | also measured
70 | GCTTGGTCTTGACCTC (sugars k3 d9 k3 e1, PS) | 29% | 
71 | GCTTGGTCTTGACCTC (sugars kdddddddddkekeke, PS) | 17% | 
72 | GCTTGGTCTTGACCTC (sugars kkdddddddddkdkdk, PS) | 11% | 
73 | GCTTGGTCTTGACCTC (sugars kkkddddddddkekek, PS) | 0% | 
74 | GGAAGTGAGTCTCAAA (sugars kkddddddddddkeke, PS) | 55% and 49% | target mRNA inhibition (KARPAS-229, 0.44444 µM): 6%; target mRNA inhibition (KARPAS-229, 1.33333 µM): 12%; target mRNA inhibition (KARPAS-229, 12 µM): 65%
75 | GGTCTGGCCCTTTTGG (sugars k3 d10 k3, PS) | 16% | 
76 | GGTCTGGCCCTTTTGG (sugars kkkddddddddkekek, PS) | 2% | 
77 | GGTCTTGACCTCCCGC (sugars k3 d9 k3 e1, PS) | 22% | 
78 | GGTCTTGACCTCCCGC (sugars kekdddddddddeekk, PS) | 33% | 
79 | GGTCTTGACCTCCCGC (sugars kkkdddddddddkeke, PS) | 7% | 
80 | GGTCTTTGAGGTCTGG (sugars kkdddddddddkdkdk, PS) | 56% | 
81 | GGTGAGTAGGACGAGT (sugars k3 d10 k3, PS) | 48% | 
82 | GGTGTATTTCCCTGTC (sugars k3 d10 k3, PS) |  | target mRNA inhibition (KARPAS-229, 0.44444 µM): 32% and 25%; target mRNA inhibition (KARPAS-229, 1.33333 µM): 38% and 56%; target mRNA inhibition (KARPAS-229, 12 µM): 69% and 67%
83 | GGTGTATTTCCCTGTC (sugars kkddddddddddkeke, PS) | 21% | 
84 | GGTTCTTGGACTCTCA (sugars k2 d11 k3, PS) | 47% | 
85 | GGTTCTTGGACTCTCA (sugars k3 d9 k3 e1, PS) | 0% | 
86 | GGTTCTTGGACTCTCA (sugars k3 d10 k3, PS) |  | target mRNA inhibition (KARPAS-229, 0.44444 µM): 52% and 54%; target mRNA inhibition (KARPAS-229, 1.33333 µM): 65% and 72%; target mRNA inhibition (KARPAS-229, 12 µM): 86% and 82%
87 | GGTTCTTGGACTCTCA (sugars kekdddddddddeekk, PS) | 60% and 66% | target mRNA inhibition (KARPAS-229, 0.44444 µM): 31%; target mRNA inhibition (KARPAS-229, 1.33333 µM): 44%; target mRNA inhibition (KARPAS-229, 12 µM): 81%
88 | GGTTCTTGGACTCTCA (sugars kkdddddddddkdkdk, PS) | 29% | 
89 | GGTTCTTGGACTCTCA (sugars kkddddddddkekekk, PS) | 0% | 
90 | GTAATAGGAGTGAGAC (sugars k3 d10 k3, PS) | 11% | 
91 | GTCTAGTGTCATGGAA (sugars kddddddddddkekek, PS) | 42% | 
